In patent US20230174523A1, “BENZENESULFONAMIDE DERIVATIVES AS TRAP1 MODULATORS AND USES THEREOF” (Amathus Therapeutics, Inc., priority 2020, published 2023):

Target: T1, TRAP1 enzyme (Homo sapiens, UniProt Q12931)
T1 sequence (Q12931 60-704): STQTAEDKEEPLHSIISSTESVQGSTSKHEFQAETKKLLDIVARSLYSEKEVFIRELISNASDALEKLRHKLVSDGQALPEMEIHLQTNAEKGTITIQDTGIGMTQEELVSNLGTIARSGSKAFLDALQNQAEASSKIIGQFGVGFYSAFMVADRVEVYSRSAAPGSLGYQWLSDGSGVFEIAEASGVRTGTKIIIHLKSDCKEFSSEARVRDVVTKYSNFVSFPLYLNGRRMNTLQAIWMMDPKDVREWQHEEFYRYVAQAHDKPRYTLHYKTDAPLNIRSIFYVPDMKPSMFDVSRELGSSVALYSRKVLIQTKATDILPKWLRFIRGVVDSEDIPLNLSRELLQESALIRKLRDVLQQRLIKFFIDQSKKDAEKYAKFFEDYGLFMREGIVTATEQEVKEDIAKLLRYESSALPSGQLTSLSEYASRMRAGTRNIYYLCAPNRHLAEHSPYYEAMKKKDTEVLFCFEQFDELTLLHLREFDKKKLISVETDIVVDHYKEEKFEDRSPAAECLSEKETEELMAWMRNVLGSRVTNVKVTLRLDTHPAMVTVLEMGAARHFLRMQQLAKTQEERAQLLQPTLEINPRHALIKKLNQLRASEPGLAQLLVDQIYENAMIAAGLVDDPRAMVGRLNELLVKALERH
Test: Malachite green phosphate assay of TRAP1 ATPase activity
Assay type: biochemical
Conditions: for EC50: TRAP1 ATPase activation, 150 nM Trap1, 20 μM ATP, geometric mean, read-out: Malachite Green Fluor DRC: GeoMean EC50; for Emax: read-out: Malachite Green Fluor DRC: Mean Emax
Method: The Potency of test compounds to modulate the ATPase activity of TRAP1 enzyme was evaluated using malachite green phosphatase assay. The assay is based on quantification of the green complex formed between Malachite Green, molybdate and inorganic phosphate generated in the phosphatase reaction. Assays were performed using a Malachite Green assay kit. All the assays were carried out in a 96-well transparent plate. The buffer used was 50 mM HEPES (pH 7.5), 20 mM KCl, 4 mM MgCl2 and 0.05% BSA. 150 nM Trap1 enzyme was incubated with various concentrations of the test compound (0.78 μM-100 μM) at 37° C. for 30 mins. 20 μM ATP was added to each well (except blank wells) to start the reaction and the plate was then incubated at 37° C. for 180 mins. 10 μl of the reaction volume of each sample was then transferred to a white 384-well proxiplate in quadruplets. 2.5 μl of Malachite Green reagent was added to all the wells and the plate was equilibrated for 15 mins. The reaction was stopped by adding 12% H2SO4 and the plate was read for fluorescence at 620 nm (λex=573 nm). The amount of phosphate released was estimated from a phosphate standard curve generated at the same experimental conditions. Emax (Maximal percent activation) and EC50 (concentration of test compound for half maximal activation) were estimated by fitting the dose response data to a sigmoidal curve fitting equation using Graphpad Prism software V.7.0.

| SMILES | EC50 | Emax |
| --- | --- | --- |
| COc1ccc(NC(=O)c2cnc(C(F)(F)F)[nH]2)cc1S(=O)(=O)Nc1ccc(Br)cc1 [Compound 105] | 20 to 100 µM | 200 to 300% |
| COc1ccc(NC(=O)c2ocnc2C)cc1S(=O)(=O)Nc1ccc(Br)cc1 [Compound 299] | 20 to 100 µM | 160 to 199% |
| COc1ccc(NC(=O)c2cnc(-c3ccccc3)[nH]2)cc1S(=O)(=O)Nc1ccc(N=[N+]=[N-])cc1 [Compound 380, N-(3-(N-(4-azidophenyl)sulfamoyl)-4-methoxyphenyl)-2-phenyl-1H-imidazole-5-carboxamide] | < 10 µM | 160 to 199% |
| COc1ccc(NC(=O)c2nnc(-c3ccccc3)s2)cc1S(=O)(=O)Nc1ccc(Cl)cc1 [Compound 500] | 10 to 20 µM | 200 to 300% |
| COc1ccc(NC(=O)c2cnc(C(F)(F)F)[nH]2)cc1S(=O)(=O)Nc1ccc(C)cc1 [Compound 224] | 20 to 100 µM | 123 to 159% |
| COc1ccc(NC(=O)c2cnco2)cc1S(=O)(=O)Nc1ccc(Br)cc1 [Compound 91, N-(3-(N-(4-bromophenyl)sulfamoyl)-4-methoxyphenyl) oxazole-5-carboxamide] | 20 to 100 µM | 160 to 199% |
| COc1ccc(NC(=O)c2ncco2)cc1S(=O)(=O)Nc1ccc(Br)cc1 [Compound 172] | < 10 µM | 160 to 199% |
| O=C(Nc1ccc(F)c(S(=O)(=O)Nc2ccc(Br)cc2)c1)c1cnc(C(F)(F)F)[nH]1 [Compound 186] | 20 to 100 µM | 200 to 300% |
| COc1ccc(NC(=O)c2nccs2)cc1S(=O)(=O)Nc1ccc(F)cc1 [Compound 345] | 20 to 100 µM | 200 to 300% |
| COc1ccc(NC(=O)c2cnc(C(F)(F)F)[nH]2)cc1S(=O)(=O)N(CCCCCO)c1ccc(Br)cc1 [Compound 431, N-(3-(N-(4-bromophenyl)-N-(5-hydroxypentyl)sulfamoyl)-4-methoxyphenyl)-2-(trifluoromethyl)-1H-imidazole-5-carboxamide] | 20 to 100 µM | > 300% |
| COc1ccc(NC(=O)c2cnc(C(F)(F)F)[nH]2)cc1S(=O)(=O)Nc1ccccc1C [Compound 232] | < 10 µM | 123 to 159% |
| COc1ccc(NC(=S)c2ncc(-c3ccccc3)o2)cc1S(=O)(=O)Nc1ccc(Cl)cc1 [Compound 583, N-(3-(N-(4-chlorophenyl)sulfamoyl)-4-methoxyphenyl)-5-phenyloxazole-2-carbothioamide] | 10 to 20 µM | 160 to 199% |
| COc1ccc(NC(=O)c2ncc(-c3ccccc3)s2)cc1S(=O)(=O)Nc1c(C)cccc1C [Compound 449] | 10 to 20 µM | 123 to 159% |
| O=C(Nc1ccc(F)c(S(=O)(=O)Nc2ccc(F)cc2)c1)c1ncco1 [Compound 314] | 20 to 100 µM | 123 to 159% |
| COc1ccc(NC(=O)c2ncco2)cc1S(=O)(=O)N(CCCCCC(=O)O)c1ccc(Br)cc1 [Compound 250] | 10 to 20 µM | 200 to 300% |
| COc1ccc(NC(=O)c2ncco2)cc1S(=O)(=O)N(CCCCCCO)c1ccc(Br)cc1 [Compound 255] | 10 to 20 µM | 160 to 199% |
| COc1ccc(NC(=O)c2cnccc2C(C)C)cc1S(=O)(=O)Nc1ccc(Cl)cc1 [Compound 496] | 20 to 100 µM | 160 to 199% |
| COc1ccc(NC(=O)c2ccccc2N2CCOCC2)cc1S(=O)(=O)Nc1c(C)cccc1C [Compound 1048] | 10 to 20 µM | 160 to 199% |
| COc1ccc(NC(=O)c2ncc(C(F)(F)F)[nH]2)cc1S(=O)(=O)Nc1ccc(Br)cc1 [Compound 229, N-(3-(N-(4-bromophenyl)sulfamoyl)-4-methoxyphenyl)-5-(trifluoromethyl)-1H-imidazole-2-carboxamide] | 20 to 100 µM | 160 to 199% |
| COc1ccc(NC(=O)c2ncco2)cc1S(=O)(=O)N1CCOCC1 [Compound 309] | 20 to 100 µM | 123 to 159% |
